Patent US20030008338A1, “Assay methods and kits therefor” (LumiTech (UK) Limited, priority 2000, published 2003)

Assays:
Type in all cases: cell-based
[1] = system: U937 cells; assay: AK release bioluminescence assay, U937 cells incubated with camptothecin
Method: (§1) A number of different cell types have been tested for induction of cytotoxicity with soluble agents. Cytolysis is determined after incubation with the agent, when the cell membrane has lost integrity and AK can ‘leak’ out into the surrounding culture medium. The assay is performed by incubating non-microbial (e.g. mammalian) cells, either cell lines or primary cell types including isolated tumour cells, with the agonist(s) of choice. After an appropriate incubation time the cells are simply removed from the incubator and AK activity determined in the culture supernatant. If the cells have been cultured in clear bottomed, white walled plates (Perkin Elmer Life Sciences) in volumes no greater than 100 μl, then the plates are simply placed in a luminometer equipped with injection facilities and 150 μl of AKR added to each of the wells, where an integral reading of light output is measured over 1 second. When using luminometers without injectors the AKR can be added manually preferably using a multichannel pipette. The light output is read as soon after addition of reagent as possible. The increase in light output over the complete medium control is the result of the leakage of AK from damaged cells as a result of incubation with cytolytic inducing substances.
Example 2: A second model known to induce secondary necrosis is the incubation of U937 cells (ECACC No: 87010802) with camptothecin (Sigma). The cells were set up in triplicate wells of a white Isoplate™ (Perkin Elmer Life Sciences) at serial doubling dilutions of cells with 1000 nM camptothecin. The cells were then incubated with the drug for 4 hours and AK activity was determined as outlined in example 1. […] In the control cells there was a slight increase in AK activity over the complete medium control, but the increase in the presence of the drug was much greater, nearly 3 fold (2.6).

[2] = system: Cem-7 cells; assay: AK (adenylate kinase) release bioluminescence assay, Cem-7 cells incubated with dexamethasone
Method: as §1
Example 1: We have investigated 37 different cell lines and models of apoptosis/necrosis induction. One of the first models investigated for this assay was the incubation of Cem-7 cells with dexamethasone. Two different experiments were performed: one experiment where cells at different cell numbers/well were incubated with one concentration of dexamethasone (500 nM, Sigma) for 48 and 72 hours, and another experiment where cells at 5000/well were incubated with increasing concentrations of the agent (0, 10, 25, 50, 75, 100, 150, 200 nM) for 72 hours. The cell suspensions were incubated in 100 μl in triplicate wells of a 96 well clear-bottomed white walled microtitre plate (Perkin Elmer Isoplate™). At the end of the incubation period the plates were assayed for AK activity using the Wallac Microbeta Jet, with 150 μl of AKR added and the RLUs (1 second integral) read at time 0 and every 5 minutes for 45 minutes. […] At 2500 cells per well the activity had increased by 71% from 15 913 RLUs at 48 hours to 27 266 RLUs at 72 hours.

[3] = system: K562 cells; assay: AK release bioluminescence assay, K562 cells incubated with ionomycin; parameters: cytolysis versus control cells at the lowest concentration: dose or concentration left out as unconfirmed
Method: as §1
Example 3: Ionomycin is a calcium ionophore that acts as a mobile ion carrier for Ca^2+. We investigated increasing concentrations of this agent on K562 cells. As with the previous examples, the cells were set up in 100 μl volumes in triplicate wells of a 96 well Isoplate™. The concentrations of ionomycin (Sigma) used were […]. Cells were incubated for three hours in the presence of the agent prior to determination of AK activity. The data shown in FIG. 7 are for the 1-second integral reading taken at time 0 using the Wallac MicroBeta Jet.

[4] = camptothecin from 50 to 1000 μM, cells at 2500/well

SMILES: CC[C@@]1(O)C(=O)OCc2c1cc1n(c2=O)Cc2cc3ccccc3nc2-1 [camptothecin]
- increase in AK activity in the presence of the drug ([1]; 1000 nM camptothecin, 4 hours): 2.6 fold
- cell numbers at which the increase in activity was seen ([1]; 1000 nM camptothecin, 4 hours, serial doubling dilutions of cells): above 156 /well
- concentration at which cytolysis appears [1, 4]: 100 µM
- enzyme (AK) activity with increasing concentrations [1, 4]: concentration dependent increase in enzyme activity

SMILES: C[C@@H]1C[C@H]2[C@@H]3CCC4=CC(=O)C=C[C@]4(C)[C@@]3(F)[C@@H](O)C[C@]2(C)[C@@]1(O)C(=O)CO [dexamethasone]
- AK release ([2]; 200 nM dexamethasone, 72 hours, 5000 cells/well): 16900 RLU
- increase in AK activity from 48 hours to 72 hours ([2]; 500 nM dexamethasone, 2500 cells per well): 71%
- AK activity ([2]; 500 nM dexamethasone, 48 hours, 2500 cells per well): 15 913 RLUs
- AK activity ([2]; 500 nM dexamethasone, 72 hours, 2500 cells per well): 27 266 RLUs

SMILES: C[C@H](CCC(=O)O)C[C@H](C)C[C@H](C)C(=O)/C=C(\O)[C@H](C)C[C@H](C)C/C=C/[C@@H](C)[C@@H](O)[C@@H](C)[C@@H](O)C[C@@H]1CC[C@@](C)([C@H]2CC[C@@](C)([C@@H](C)O)O2)O1 [Ionomycin]
- AK activity with all concentrations of the agent ([3]; FIG. 7, increasing concentrations of ionomycin): significant increase in AK activity
- effect on AK activity with increasing concentrations ([3]; ionomycin 1, 2, 3, 4 and 5 mM, three hours, time 0 reading): concentration dependent effect
- cytolysis versus control cells at the lowest concentration ([3]; lowest ionomycin concentration, three hours): significant increase in cytolysis
